Read-outs that look alike come from different tables or passages of the source.
Experiment: Preliminary pharmacokinetics in trial 1403-0001 (Arm A D1 q3w, Arm B D1 D8 q4w)
Assay type: in vivo, human
Conditions: for Vd/F / half-life / Tmax / AUC(0-inf) / Cmax: human, plasma, oral
Text: Preliminary PK data were available from the first 45 treated patients in study 1403-0001. The exploratory PK analysis is based on planned blood sampling time-points and the results are subject to change because not all samples from these patients have been analyzed yet. Therefore, AUCs may be incomplete. In addition, information on the absorption, distribution, and elimination of the MDM2 antagonist of formula I are descriptive given the limited exploratory PK results available up to this point in time.
Consequently the preliminary PK results support the dose selection of 45 mg (and alternatively even of 30 mg) combined with the once in three weeks (D1 q3w) dose regimen. The tmax of the MDM2 antagonist of formula I is generally between 4 and 6 hours after tablet intake.

SMILES: Cc1c(C(=O)O)ccc2c3n(nc12)[C@@H]1[C@H](C3)N(CC2CC2)[C@@]2(C(=O)Nc3cc(Cl)ccc32)[C@H]1c1cccc(Cl)c1F [MDM2-antagonist of formula I, (2′S,3′S,3a'S,10a'S)-6-chloro-3′-(3-chloro-2-fluorophenyl)-1′-(cyclopropylmethyl)-6′-methyl-2-oxo-1,2,3′,3a′,10′,10a′-hexahydro-1′H-spiro[indole-3,2′-pyrrolo[2′,3′:4,5]pyrrolo[1,2-b]indazole]-7′-carboxylic acid]
- Vd/F (10 mg, Day 1, D1 D8 q4w (Arm B), gMean, N=3, read-out: Vz/F): 24.5 L
- half-life (10 mg, Day 1, D1 D8 q4w (Arm B), gMean, N=3, read-out: t1/2 (converted)): 52.4 h
- Tmax (10 mg, Day 1, D1 D8 q4w (Arm B), median, N=3, read-out: tmax): 6 h
- AUC(0-inf) (10 mg, Day 8, D1 D8 q4w (Arm B), gMean, N=3, read-out: AUC0-∞): 48.4 µM·h
- Cmax (10 mg, Day 8, D1 D8 q4w (Arm B), gMean, N=3, read-out: Cmax): 714 nM
- Vd/F (10 mg, Day 8, D1 D8 q4w (Arm B), gMean, N=3, read-out: Vz/F): 23.1 L
- half-life (10 mg, Day 8, D1 D8 q4w (Arm B), gMean, N=3, read-out: t1/2 (converted)): 45.9 h
- Tmax (10 mg, Day 8, D1 D8 q4w (Arm B), median, N=3, read-out: tmax): 5 h
- AUC(0-inf) (15 mg, Day 1, D1 D8 q4w (Arm B), gMean, N=3, read-out: AUC0-∞): 37.8 µM·h
- Cmax (15 mg, Day 1, D1 D8 q4w (Arm B), gMean, N=3, read-out: Cmax): 831 nM
- Vd/F (15 mg, Day 1, D1 D8 q4w (Arm B), gMean, N=3, read-out: Vz/F): 32.3 L
- half-life (15 mg, Day 1, D1 D8 q4w (Arm B), gMean, N=3, read-out: t1/2 (converted)): 33.4 h
- Tmax (15 mg, Day 1, D1 D8 q4w (Arm B), median, N=3, read-out: tmax): 5 h
- AUC(0-inf) (15 mg, Day 8, D1 D8 q4w (Arm B), gMean, N=2, read-out: AUC0-∞): 25.8 µM·h
- Vd/F (15 mg, Day 8, D1 D8 q4w (Arm B), gMean, N=2, read-out: Vz/F): 37.3 L
- half-life (15 mg, Day 8, D1 D8 q4w (Arm B), gMean, N=2, read-out: t1/2 (converted)): 26.3 h
- Cmax (15 mg, Day 8, D1 D8 q4w (Arm B), gMean, N=3, read-out: Cmax): 776 nM
- Tmax (15 mg, Day 8, D1 D8 q4w (Arm B), median, N=3, read-out: tmax): 4 h
- Cmax (20 mg, Arm A D1 q3w, 20 mg, N=2, read-out: Cmax (gMean)): 1160 nM
- Tmax (20 mg, Arm A D1 q3w, 20 mg, N=2, read-out: tmax (median)): 5.5 h
- AUC(0-inf) (20 mg, Day 1, D1 D8 q4w (Arm B), gMean, N=3, read-out: AUC0-∞): 88.9 µM·h
- Cmax (20 mg, Day 1, D1 D8 q4w (Arm B), gMean, N=3, read-out: Cmax): 1370 nM
- Vd/F (20 mg, Day 1, D1 D8 q4w (Arm B), gMean, N=3, read-out: Vz/F): 27.7 L
- half-life (20 mg, Day 1, D1 D8 q4w (Arm B), gMean, N=3, read-out: t1/2 (converted)): 50.5 h
- Tmax (20 mg, Day 1, D1 D8 q4w (Arm B), median, N=3, read-out: tmax): 4 h
- AUC(0-inf) (20 mg, Day 8, D1 D8 q4w (Arm B), gMean, N=3, read-out: AUC0-∞): 61.1 µM·h
- Cmax (20 mg, Day 8, D1 D8 q4w (Arm B), gMean, N=3, read-out: Cmax): 1220 nM
- Vd/F (20 mg, Day 8, D1 D8 q4w (Arm B), gMean, N=3, read-out: Vz/F): 30.5 L
- half-life (20 mg, Day 8, D1 D8 q4w (Arm B), gMean, N=3, read-out: t1/2 (converted)): 38.2 h
- Tmax (20 mg, Day 8, D1 D8 q4w (Arm B), median, N=3, read-out: tmax): 3 h
- AUC(0-inf) (30 mg, Arm A D1 q3w, 30 mg, N=3, read-out: AUC0-∞, gMean (gCV [%])): 113 µM·h
- Cmax (30 mg, Arm A D1 q3w, 30 mg, N=3, read-out: Cmax (gMean)): 2890 nM
- Vd/F (30 mg, Arm A D1 q3w, 30 mg, N=3, read-out: Vz/F, gMean (gCV [%])): 23.6 L
- Tmax (30 mg, Arm A D1 q3w, 30 mg, N=3, read-out: tmax (median)): 4 h
- AUC(0-inf) (30 mg, Day 1, D1 D8 q4w (Arm B), gMean, N=4, read-out: AUC0-∞): 79.9 µM·h
- Cmax (30 mg, Day 1, D1 D8 q4w (Arm B), gMean, N=4, read-out: Cmax): 1440 nM
- Vd/F (30 mg, Day 1, D1 D8 q4w (Arm B), gMean, N=4, read-out: Vz/F): 33.1 L
- half-life (30 mg, Day 1, D1 D8 q4w (Arm B), gMean, N=4, read-out: t1/2 (converted)): 36.2 h
- Tmax (30 mg, Day 1, D1 D8 q4w (Arm B), median, N=4, read-out: tmax): 4.5 h
- AUC(0-inf) (30 mg, Day 8, D1 D8 q4w (Arm B), gMean, N=3, read-out: AUC0-∞): 64.8 µM·h
- Cmax (30 mg, Day 8, D1 D8 q4w (Arm B), gMean, N=3, read-out: Cmax): 1330 nM
- Vd/F (30 mg, Day 8, D1 D8 q4w (Arm B), gMean, N=3, read-out: Vz/F): 44.6 L
- half-life (30 mg, Day 8, D1 D8 q4w (Arm B), gMean, N=3, read-out: t1/2 (converted)): 39.5 h
- Tmax (30 mg, Day 8, D1 D8 q4w (Arm B), median, N=3, read-out: tmax): 4 h
- AUC(0-inf) (45 mg, Arm A D1 q3w, 45 mg, N=6, read-out: AUC0-∞, gMean (gCV [%])): 137 µM·h
- Cmax (45 mg, Arm A D1 q3w, 45 mg, N=6, read-out: Cmax (gMean)): 2710 nM
- Vd/F (45 mg, Arm A D1 q3w, 45 mg, N=6, read-out: Vz/F, gMean (gCV [%])): 35.1 L
- half-life (45 mg, Arm A D1 q3w, 45 mg, N=6, read-out: t1/2 (gMean) (converted)): 43.7 h
- Tmax (45 mg, Arm A D1 q3w, 45 mg, N=6, read-out: tmax (median)): 4 h
- AUC(0-inf) (45 mg, Day 1, D1 D8 q4w (Arm B), gMean, N=2, read-out: AUC0-∞): 96.9 µM·h
- Cmax (45 mg, Day 1, D1 D8 q4w (Arm B), gMean, N=2, read-out: Cmax): 2330 nM
- Vd/F (45 mg, Day 1, D1 D8 q4w (Arm B), gMean, N=2, read-out: Vz/F): 34 L
- half-life (45 mg, Day 1, D1 D8 q4w (Arm B), gMean, N=2, read-out: t1/2 (converted)): 30 h
- Tmax (45 mg, Day 1, D1 D8 q4w (Arm B), median, N=2, read-out: tmax): 4 h
- AUC(0-inf) (50 mg, Arm A D1 q3w, 50 mg, N=4, read-out: AUC0-∞, gMean (gCV [%])): 314 µM·h
- Cmax (50 mg, Arm A D1 q3w, 50 mg, N=4, read-out: Cmax (gMean)): 3740 nM
- Vd/F (50 mg, Arm A D1 q3w, 50 mg, N=4, read-out: Vz/F, gMean (gCV [%])): 23.7 L
- half-life (50 mg, Arm A D1 q3w, 50 mg, N=4, read-out: t1/2 (gMean) (converted)): 60.9 h
- Tmax (50 mg, Arm A D1 q3w, 50 mg, N=4, read-out: tmax (median)): 5.5 h
- AUC(0-inf) (60 mg, Arm A D1 q3w, 60 mg, N=6, read-out: AUC0-∞, gMean (gCV [%])): 163 µM·h
- Vd/F (60 mg, Arm A D1 q3w, 60 mg, N=6, read-out: Vz/F, gMean (gCV [%])): 31.4 L
- half-life (60 mg, Arm A D1 q3w, 60 mg, N=6, read-out: t1/2 (gMean) (converted)): 34.9 h
- Cmax (60 mg, Arm A D1 q3w, 60 mg, N=7, read-out: Cmax (gMean)): 3270 nM
- Tmax (60 mg, Arm A D1 q3w, 60 mg, N=7, read-out: tmax (median)): 5 h
- AUC(0-inf) (60 mg, Day 1, D1 D8 q4w (Arm B), gMean, N=2, read-out: AUC0-∞): 87.7 µM·h
- Cmax (60 mg, Day 1, D1 D8 q4w (Arm B), gMean, N=2, read-out: Cmax): 1960 nM
- Vd/F (60 mg, Day 1, D1 D8 q4w (Arm B), gMean, N=2, read-out: Vz/F): 57 L
- half-life (60 mg, Day 1, D1 D8 q4w (Arm B), gMean, N=2, read-out: t1/2 (converted)): 34.2 h
- Tmax (60 mg, Day 1, D1 D8 q4w (Arm B), median, N=2, read-out: tmax): 6 h
- Cmax (60 mg, Day 8, D1 D8 q4w (Arm B), gMean, N=2, read-out: Cmax): 1890 nM
- Tmax (60 mg, Day 8, D1 D8 q4w (Arm B), median, N=2, read-out: tmax): 16 h
- AUC(0-inf) (80 mg, Arm A D1 q3w, 80 mg, N=2, read-out: AUC0-∞, gMean (gCV [%])): 205 µM·h
- Cmax (80 mg, Arm A D1 q3w, 80 mg, N=2, read-out: Cmax (gMean)): 3930 nM
- Vd/F (80 mg, Arm A D1 q3w, 80 mg, N=2, read-out: Vz/F, gMean (gCV [%])): 26.5 L
- half-life (80 mg, Arm A D1 q3w, 80 mg, N=2, read-out: t1/2 (gMean) (converted)): 27.9 h
- Tmax (80 mg, Arm A D1 q3w, 80 mg, N=2, read-out: tmax (median)): 3.5 h
- Tmax (after tablet intake, across dose groups, read-out: tmax): 4 to 6 h
- half-life (range across dose groups, read-out: half-life): 27.9 to 60.9 h
- half-life (Arm A D1 q3w, 30 mg, N=3, read-out: t1/2 (gMean) (converted)): 36.4 h
- clearance (humans, preliminary PK data): low clearance
- dose levels at which exposure (Cmax and AUC0-inf) is above predicted therapeutic exposures (humans, preliminary PK data): ≥ 15 mg
- volume of distribution (humans, preliminary PK data): very low volume of distribution

— patent publication US20230058171A1, “NEW ORAL PHARMACEUTICAL COMPOSITION FOR CANCER THERAPY” (BOEHRINGER INGELHEIM INTERNATIONAL GMBH, priority 2021, published 2023)
